Data on one compound can be found in patent US20220401418A1, “TREATMENT OF MALARIA USING HISTONE DEACETYLASE (HDAC) INHIBITORS” (FOUNDATION FOR NEGLECTED DISEASE RESEARCH, priority 2019, published 2022).

For one series, the system named is Plasma Protein. Briefly: Plasma protein binding, human. The class given is in vitro ADME. Particulars: summary statement on Table 3, across species. From the text: (§1) Method Reference for Table 3: Chung T D Y et al. In Vitro and In Vivo Assessment of ADME and PK Properties during lead selection and lead optimisation-guidelines, benchmarks and rules of thumb. In: Assay Guidance Manual. 2015.

Series [1] can be described thus: Microsomal stability, RLM. The class given is in vitro ADME. Particulars: Test Conc. 10 μM.
Text: as §1

Another series addresses T1, Pf-HDAC1 (Plasmodium falciparum, UniProt Q7K6A1).
T1 construct: His-tag; FLAG-tag; purchased BPS Bioscience
T1 sequence (Q7K6A1 1-449): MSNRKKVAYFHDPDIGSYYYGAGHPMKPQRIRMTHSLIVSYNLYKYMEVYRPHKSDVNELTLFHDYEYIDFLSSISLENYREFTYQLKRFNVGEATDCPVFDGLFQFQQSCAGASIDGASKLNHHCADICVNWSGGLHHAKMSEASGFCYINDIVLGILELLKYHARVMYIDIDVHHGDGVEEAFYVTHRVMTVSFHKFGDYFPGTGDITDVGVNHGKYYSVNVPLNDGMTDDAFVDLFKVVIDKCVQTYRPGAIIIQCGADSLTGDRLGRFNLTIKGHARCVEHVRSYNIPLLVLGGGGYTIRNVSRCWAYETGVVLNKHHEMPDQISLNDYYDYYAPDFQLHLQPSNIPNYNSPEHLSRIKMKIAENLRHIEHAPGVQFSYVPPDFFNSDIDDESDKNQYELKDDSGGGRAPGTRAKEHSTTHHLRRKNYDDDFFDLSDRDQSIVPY
In words: PfHDAC1 fluorescent activity assay. The class given is biochemical. On the procedure:
The fluorescence developed was measured with excitation at 350-380 nm and emission at 440-460 nm.

For a further series, the target named is CYP 2D6 (Homo sapiens, UniProt P10635). Briefly: Cyp inhibition CYP 2D6. In kind it is in vitro ADME.
Text: as §1

The next series is described as follows: Plasma stability, dog. The class given is in vitro ADME.
Text: as §1

For the next series, the target named is CYP 3A4 (Homo sapiens, UniProt P08684). Briefly: Cyp inhibition CYP 3A4. The class given is in vitro ADME.
Text: as §1

Series [2] in a line: Microsomal stability, HLM. The class given is in vitro ADME.
Text: as §1

Another series has as its target HERG (Homo sapiens, UniProt Q12809). In words: HERG binding. Particulars: summary statement on Table 3.
Text: as §1

For another series, the system named is P. falciparum. Briefly: In vivo efficacy in humanized SCID mouse model of P. falciparum malaria. Particulars: for reduction in parasitaemia: intra-peritoneal, humanized SCID mice. From the text: In vivo efficacy assessed in humanized SCID mouse model of P. falciparum malaria.
The nature of another series: Plasma stability, human. In kind it is in vitro ADME.
Text: as §1

Series [3] concerns Hu HDAC (HeLa nuclear extract). In words: HDAC activity screening, fluorescence assay with HeLa nuclear extract. Particulars: HeLa nuclear extract as enzyme source. In kind it is biochemical, human. On the procedure: HDAC inhibition screening was performed using a fluorescence-based assay with a fluorescent substrate (BocLys (Ac)-AMC Substrate). HeLa nuclear extract was used as the enzyme source.
The assay was performed in 96-well black microplates, and the total volume of the assay was set at 100 μl. […] The enzyme mixture was prepared by adding […] of the diluted enzyme (HeLa nuclear extract) to […] of HDAC buffer. From the enzyme mixture, 40 μl was taken and mixed with 10 μl of test compound (final concentration from 0.01 to 10 μM) or vehicle (control). The final mixture (50 μl) was added to each well which was then pre-incubated at 37° C. for 10 min. The HDAC reaction was started by adding 50 μl of HDAC substrate: Boc-Lys (Ac)-AMC (Anaspec, Inc Fremont, Calif., USA). […] The release of AMC was monitored by measuring the fluorescence at an excitation wavelength of 360 nm and an emission wavelength of 460 nm. Buffer and substrate alone served as blank.

Another series has as its target T2, CYP 1A2 (Homo sapiens, UniProt P05177).
T2 sequence (P05177 1-516): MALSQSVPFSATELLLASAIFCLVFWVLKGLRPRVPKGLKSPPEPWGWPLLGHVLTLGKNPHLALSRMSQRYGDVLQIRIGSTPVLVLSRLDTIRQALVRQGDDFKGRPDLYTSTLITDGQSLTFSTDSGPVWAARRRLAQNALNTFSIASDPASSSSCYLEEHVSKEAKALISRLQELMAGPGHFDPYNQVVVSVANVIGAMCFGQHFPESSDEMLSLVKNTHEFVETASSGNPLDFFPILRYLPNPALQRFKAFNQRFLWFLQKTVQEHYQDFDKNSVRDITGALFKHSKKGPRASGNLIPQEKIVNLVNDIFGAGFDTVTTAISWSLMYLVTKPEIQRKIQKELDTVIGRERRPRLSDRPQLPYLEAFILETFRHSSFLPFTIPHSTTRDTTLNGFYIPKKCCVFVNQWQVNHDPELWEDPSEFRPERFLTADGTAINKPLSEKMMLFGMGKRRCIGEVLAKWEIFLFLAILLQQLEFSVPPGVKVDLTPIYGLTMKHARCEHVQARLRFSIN
Briefly: Cyp inhibition CYP 1A2. The class given is in vitro ADME. Particulars: summary statement on Table 3, all CYP isoforms tested.
Text: as §1

The format of series [4] is in vitro ADME. Particulars: mouse, microsomes, 2 h, 10 μM.
Text: as §1

The test system of series [5] is Plasmodium falciparum 3D7. Briefly: Plasmodium falciparum asexual blood-stage (ABS) assay. The class given is cell-based. The protocol: Plasmodium falciparum 3[…]. falciparum asexual blood-stage (ABS) assay, for which the cells were resuscitated from the stabilate and maintained at 5% haematocrit. Red blood cells obtained from the hospital were used to maintain the culture at 1% parasitaemia while screening. Plasmodium falciparum: 3D7 cells were used as a target strain for the assay. Mefloquine (Sigma-Aldrich) was used as a standard inhibitor. At day 1, […] of 10 mM mefloquine was added to columns 12 and 24 of the sterile 384-well black, clear-bottom, cell culture assay plates followed by compound curves which were added using Echo. The P. falciparum 3D7 cells were counted and 20 ml of culture was prepared at 5% haematocrit, 0.3% parasitaemia (as one batch, i.e., 12 plates, prepare 260 ml, to allow for WellMate prime volume) for each plate. From this, 50 μl of culture was added to all wells on all plates using WellMate with small bore tubing on full (S-1) speed. […] The plates were read on Victor plate reader using '384sybrgreen' protocol (excitation 485 nm, emission 528 nm) after which the plate contents were aspirated into 5% Virkon, and disposed of after autoclaving. Percentage inhibition for each test compound was calculated using the following equation: % Inhibition=100-(TEST COMPOUND-BLANK)/(NO INHIBITION-BLANK)*100)

The nature of a further series: Plasma stability, mouse. The class given is in vitro ADME.
Text: as §1

The next series relates to HepG2. Briefly: Cytotoxicity HepG2. The class given is cell-based.
Text: as §1

A short description of the next series: Plasma stability, rat. In kind it is in vitro ADME.
Text: as §1

Like-named read-outs stand apart in the source and are kept apart here.

Sequence of CYP 2D6 (P10635 whole entry, species assumed): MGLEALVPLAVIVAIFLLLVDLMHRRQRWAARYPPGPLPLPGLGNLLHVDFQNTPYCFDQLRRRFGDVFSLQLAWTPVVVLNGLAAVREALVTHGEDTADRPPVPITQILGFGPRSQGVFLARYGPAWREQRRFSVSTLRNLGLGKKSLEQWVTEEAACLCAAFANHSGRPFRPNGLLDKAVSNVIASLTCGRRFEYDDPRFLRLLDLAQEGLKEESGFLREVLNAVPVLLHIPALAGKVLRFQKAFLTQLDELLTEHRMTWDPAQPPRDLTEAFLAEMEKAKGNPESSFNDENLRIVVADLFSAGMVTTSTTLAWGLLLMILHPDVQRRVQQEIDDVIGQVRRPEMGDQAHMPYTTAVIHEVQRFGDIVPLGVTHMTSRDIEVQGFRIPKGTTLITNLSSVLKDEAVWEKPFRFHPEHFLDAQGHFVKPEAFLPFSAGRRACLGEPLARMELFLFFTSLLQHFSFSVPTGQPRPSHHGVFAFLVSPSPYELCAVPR
Sequence of HERG (Q12809 whole entry): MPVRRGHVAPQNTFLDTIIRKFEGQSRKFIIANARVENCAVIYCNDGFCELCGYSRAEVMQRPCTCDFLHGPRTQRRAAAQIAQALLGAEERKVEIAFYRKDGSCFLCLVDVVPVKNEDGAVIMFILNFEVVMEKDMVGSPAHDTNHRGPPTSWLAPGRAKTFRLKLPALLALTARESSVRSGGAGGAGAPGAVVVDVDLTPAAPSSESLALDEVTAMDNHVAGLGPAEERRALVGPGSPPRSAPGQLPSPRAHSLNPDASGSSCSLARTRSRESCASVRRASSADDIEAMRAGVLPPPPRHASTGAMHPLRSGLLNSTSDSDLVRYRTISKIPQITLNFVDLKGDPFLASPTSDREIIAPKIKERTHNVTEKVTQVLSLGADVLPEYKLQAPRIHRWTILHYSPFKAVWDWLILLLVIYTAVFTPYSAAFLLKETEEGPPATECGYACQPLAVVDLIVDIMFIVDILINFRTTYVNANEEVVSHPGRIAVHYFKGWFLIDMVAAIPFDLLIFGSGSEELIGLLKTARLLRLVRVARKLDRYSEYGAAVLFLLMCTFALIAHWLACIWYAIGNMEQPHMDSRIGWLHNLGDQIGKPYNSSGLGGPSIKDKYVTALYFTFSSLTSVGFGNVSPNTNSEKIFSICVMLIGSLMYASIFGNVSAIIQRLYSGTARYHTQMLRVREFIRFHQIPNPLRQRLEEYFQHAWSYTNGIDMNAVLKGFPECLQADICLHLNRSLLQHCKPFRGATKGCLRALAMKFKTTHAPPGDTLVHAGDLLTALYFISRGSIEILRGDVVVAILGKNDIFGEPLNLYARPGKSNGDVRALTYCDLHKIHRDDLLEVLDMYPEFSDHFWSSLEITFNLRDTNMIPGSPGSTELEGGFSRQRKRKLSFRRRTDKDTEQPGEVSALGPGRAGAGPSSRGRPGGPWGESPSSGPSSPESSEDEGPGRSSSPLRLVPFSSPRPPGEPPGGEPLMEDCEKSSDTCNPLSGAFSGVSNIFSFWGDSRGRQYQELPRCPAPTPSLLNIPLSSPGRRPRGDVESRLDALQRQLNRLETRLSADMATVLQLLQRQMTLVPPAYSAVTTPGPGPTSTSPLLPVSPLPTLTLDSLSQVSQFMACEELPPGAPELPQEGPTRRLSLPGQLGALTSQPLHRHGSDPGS
Sequence of CYP 3A4 (P08684 whole entry, species assumed): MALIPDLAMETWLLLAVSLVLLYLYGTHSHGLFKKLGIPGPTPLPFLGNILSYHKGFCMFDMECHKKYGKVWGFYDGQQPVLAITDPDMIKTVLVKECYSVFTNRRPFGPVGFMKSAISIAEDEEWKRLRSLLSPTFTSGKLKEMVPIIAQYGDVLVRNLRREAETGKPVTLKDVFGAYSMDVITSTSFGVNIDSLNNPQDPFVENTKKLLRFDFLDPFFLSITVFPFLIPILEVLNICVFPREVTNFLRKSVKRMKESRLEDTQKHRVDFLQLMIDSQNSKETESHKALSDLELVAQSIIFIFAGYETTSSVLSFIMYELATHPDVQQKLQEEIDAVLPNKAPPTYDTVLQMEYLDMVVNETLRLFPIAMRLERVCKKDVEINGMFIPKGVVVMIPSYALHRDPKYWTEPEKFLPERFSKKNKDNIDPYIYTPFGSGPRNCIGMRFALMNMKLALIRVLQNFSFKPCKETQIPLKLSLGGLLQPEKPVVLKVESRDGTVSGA

In the case of `O=C(NO)c1ccc(Cn2cc(-c3ccc(CN4CCCC4)cc3)nn2)cc1` [FNDR-20123, N-hydroxy-4-((4-(4-(pyrrolidin-1-ylmethyl)phenyl)-1H-1,2,3-triazol-1-yl)methyl)benzamide], the “plasma protein binding” value in the series on Plasma Protein is “low”. Further, the “Microsomal Stability (% remaining at 120 min)” value is given as 74.56% in series [1]; 85.31% in [2] (HLM, Test Conc. 10 μM, 120 min); 76.15% in series [4]. In addition, the IC50 against Pf-HDAC1 is 31 nM; against CYP 2D6 it was 28000 nM; at CYP 3A4 it was 27000 nM; in series [3], approximately 3 nM; in series [3] (listed as 20123), 3 nM; in series [5] (Plasmodium falciparum, P. falciparum 3D7, 72 h, read-out: Anti-Malarial Activity Asexual Blood Stage IC50) it was 41 nM. Also, the “Plasma Stability (% remaining at 240 min)” value is given as 97.72% in the series “Plasma stability, dog”; 98.94% in the series “Plasma stability, human”; 89.16% in “Plasma stability, mouse”; 88.90% in “Plasma stability, rat”. Further, the “liver microsomal stability” value in series [2] (summary statement on Table 3, all microsome species) is “good”. On HERG, the “hERG liability” value is reported as “no hERG liability”. The values for the reduction in parasitaemia in the series on P. falciparum (50 mg/kg) and with P. falciparum (100 mg/kg) were 98% and 99%, respectively. Also, the reduction in parasitemia with P. falciparum (oral, 50 mg/kg body weight for 4 days, humanized SCID mouse) was found to be 67%. Besides, the “inhibition of the CYP isoforms tested” value against CYP 1A2 is “no inhibition”. Also, in [5] (screen of proprietary compound library), the “anti-malarial activity in library screen” value is listed as “potent anti-malarial activity”. The “Cytotoxicity HepG2 (% @ 100 μM)” value in the series on HepG2 turned out to be 12.6%.
